“Also recorded” adds a separate entry of the source.
How the values were obtained:
[1] = system: NADPH oxidase; test: Cell-free O2- formation by subcellular fractions from compactin-treated HL-60 cells, complemented with human neutrophil fractions, SDS-initiated; format: biochemical; conditions: for Rate of O2 formation / Rate, percent of respective untreated HL-60 sample: 10 μM
Protocol: The cells were then pelleted and resuspended in 10 mM Pipes pH 7.3, 100 mM KCl, 3 mM NaCl, 1 mM ATP, 3.5mM MgCl2 (Relax buffer) plus 100U aprotonin/ml, 1 mM PMSF, and 0.34M sucrose to a final concentration of about 1×10^8 /ml. […] Louis, MO), 6.25 mM MgCl2, 93 mM KCl, 2.8 mM NaCl, 9.3 mM Pipes pH 7.3, 0.8mM ATP, 0.16 mM NADPH, 10 μM GTPgammaS, 225 μg HL-60 cytosol, or 250 μg ([…]; cell equivalents) of human neutrophil cytosol and ±300μg/ml SOD (Sigma Chemical Co., St. Louis, MO). After a three-minute equilibration at 25° C., the formation of O2 --was initiated by the addition of 100 μM SDS. O2 --generation was monitored continuously as the SOD-sensitive reduction of cytochrome c at 550 nm. Human neutrophil plasma membranes (gamma-GSP) and cytosol (GSS) were prepared as described in (Curnutte, et al., suora (1987)). […] To localize the compactin-sensitive factor required for NADPH oxidase activity to either the cytosol, membrane, or both, subcellular fractions from control or compactin-treated differentiated HL-60 cells were prepared. The membrane fraction and cytosol from the cells were then analyzed using the cell-free NADPH oxidase system. […] HL-60 cells were treated ±10 μM compactin, as described herein. Untreated cytosol/membrane and compactin cytosol/membrane, etc., refer to the fractions obtained from these cells. Values are the result of duplicate determinations within each experiment. Values in parentheses represent the percent of the rate obtained for the respective untreated HL-60 sample. Whether the inhibited factor(s) was present in the membrane fraction or cytosol was determined via performing complementation experiments using cytosol or membranes from normal human neutrophils. Data from these experiments is illustrated above in Table 3 and in FIG. 2. FIG. 2 illustrates complementation analysis of O2 -formation by control versus compactin-treated HL-60 cells. O2 --formation was analyzed in a cell-free assay as described in the Examples. Line A represents untreated HL-60 membrane +neutrophil GSS; line B represents compactin-treated HL-60 membrane+neutrophil GSS; line C represents untreated HL-60 cytosol+neutrophil gamma GSP; line D represents compactin-treated HL-60 cytosol+neutrophil gamma GSP.

[2] = system: N-formyl peptide receptor; test: HL-60 differentiation: N-formyl peptide receptor expression (flow cytometry); format: cell-based; conditions: compactin-treated cells
Protocol: HL-60 cells were maintained in stationary culture in RPMI 1640 medium (Gibco, Grand Island, NY) containing 10% fetal bovine serum at 37° C in an atmosphere of 95 air and 5% CO2. The cells (about 8×10^5 /ml) were differentiated into neutrophil-like cells by treatment with 1.3% DMSO for six days (Harris, et al., J. Leukocyte Biol. 37: 407-422 (1985)). The cells were treated with the indicated levels of compactin or lovastatin by addition of a 1,000-fold concentrated stock solution to the appropriate concentration on day 4 of differentiation. […]
Cell viability was determined by uptake of propidium iodide (537-059; Calbiochem-Behring Corp., La Jolla, CA), detected from the emission fluorescence at 625/35 nm using a DM560 dichronic mirror (Krishan, J. Cell. Biol. 66: 188-192 (1975)). Expression of N-formyl peptide receptor was determined using fluorescein-labeled N-CHONle-Leu-Phe-Nle-Tyr-Lys (Molecular Probes, Inc., Eugene, OR) essentially by the method of Sklar and Finney (Sklar and Finney, Cytometry 3: 161-165 (1982)). Specificity of ligand binding was determined in the presence of 4 mM unlabeled T-boc peptide. […]
HL-60 differentiation was assessed using two distinct markers: appearance of N-formyl peptide receptors and appearance of the CD14 antigen.

[3] = system: HL-60 cells (NADPH oxidase / respiratory burst); test: O2- formation by DMSO-differentiated HL-60 cells, PMA-stimulated; format: cell-based; conditions: various concentrations
Protocol: HL-60 cells were maintained in stationary culture in RPMI 1640 medium (Gibco, Grand Island, NY) containing 10% fetal bovine serum at 37° C in an atmosphere of 95 air and 5% CO2. The cells (about 8×10^5 /ml) were differentiated into neutrophil-like cells by treatment with 1.3% DMSO for six days (Harris, et al., J. Leukocyte Biol. 37: 407-422 (1985)). The cells were treated with the indicated levels of compactin or lovastatin by addition of a 1,000-fold concentrated stock solution to the appropriate concentration on day 4 of differentiation. […] In studies of the protective effect of mevalonic acid, the compound was added as the mevalonolactone (Sigma Chemical Co., St. Louis, MO) at a concentration of 1 mM to the cell culture on days 4 to 6. […]
O2 --formation by HL-60 cells was assessed by the SOD-sensitive reduction of cytochrome c. […] Cytochrome c reduction at 550nm was continuously monitored and maximal rate and extent of the reaction calculated.

[4] = Exp. 1, compactin cytosol + compactin membrane
[5] = Exp. 1, compactin cytosol + neutrophil membrane
[6] = Exp. 1, neutrophil cytosol + compactin membrane
[7] = Exp. 2, compactin cytosol + compactin membrane
[8] = Exp. 2, compactin cytosol + neutrophil membrane
[9] = Exp. 2, neutrophil cytosol + compactin membrane
[10] = Exp. 3, compactin cytosol + neutrophil membrane
[11] = Exp. 3, neutrophil cytosol + compactin membrane

## CC[C@H](C)C(=O)O[C@H]1CCC=C2C=C[C@H](C)[C@H](CC[C@@H]3C[C@@H](O)CC(=O)O3)[C@H]21 [compactin]
[1]; 10 μM compactin, compactin cytosol + compactin membrane, 100 μM SDS
  rate and extent of the burst, fractions from compactin-pretreated cells: less than 10 % of control values
[1]; [4]
  Rate of O2 formation: 0.1 nmol/min
  Rate, percent of respective untreated HL-60 sample: 1%
[1]; [5]
  Rate of O2 formation: 1.1 nmol/min
  Rate, percent of respective untreated HL-60 sample: 33%
[1]; [6]
  Rate of O2 formation: 1.9 nmol/min
  Rate, percent of respective untreated HL-60 sample: 95%
[1]; [7]
  Rate of O2 formation: 0.4 nmol/min
  Rate, percent of respective untreated HL-60 sample: 5%
[1]; [8]
  Rate of O2 formation: 1.5 nmol/min
  Rate, percent of respective untreated HL-60 sample: 37%
[1]; [9]
  Rate of O2 formation: 2.6 nmol/min
  Rate, percent of respective untreated HL-60 sample: 100%
[1]; [10]
  Rate of O2 formation: 2.4 nmol/min
  Rate, percent of respective untreated HL-60 sample: 47%
[1]; [11]
  Rate of O2 formation: 4.0 nmol/min
  Rate, percent of respective untreated HL-60 sample: 98%
[1]; compactin cytosol + neutrophil membrane
  rate of O2- formation relative to untreated HL-60 cytosol: about one-third
[1]; compactin cytosol + neutrophil membrane, FIG. 2
  lag period after addition of SDS: marked increase
[1]; compactin membrane + neutrophil cytosol, versus untreated
  rate of O2- formation with membrane from compactin-treated cells: essentially identical
[1]; cytosol from compactin-treated cells
  ability of cytosol to support oxidative response: largely defective
[1]; membrane from compactin-treated cells
  ability of membrane fraction to support respiratory burst: fully support a normal respiratory burst
[2]
  N-formyl peptide receptor expression: normal
[3]
  inhibition of O2- formation in response to PMA: loss in the ability of PMA to stimulate O2 --formation; also recorded: dose-dependent inhibition
